The values below come from patent US20260335223A1, “Topical Copolymer Formulations for Hydrophobic Drug Delivery” (1376683 B.C. LTD, priority 2023, published 2026).

The conditions of data set [1]: background statement; cited from earlier work.
Data set [2] can be described thus: Preparation of homogenous aqueous carboxymethyl cellulose (CMC) gel. The data set is classed as physicochemical. From the text: This Example illustrates that DBC3333 allowed for CBD, CBN, finasteride and docetaxel to be prepared within aqueous carboxymethyl cellulose (CMC) gels for topical use. […]
Data set [3] can be described thus: Skin permeation, Franz diffusion cell. To be noted: 3 hours.
Description: To collect the data illustrated in this Example, fresh pig skin is placed on a Franz diffusion cell and the formulation of interest is applied to the outer skin surface. After three hours the cell is dismantled and the exposed circular area excised. […] The amount of drug in each section is then quantitated and expressed at mass of drug/gram of tissue.
For cannabinoid aqueous gel preparation for skin permeation study and therapeutic efficacy studies, a water-based gel comprised of water, phenoxyethanol, ethylhexyl glycerin, acrylates/C10-30 alkyl acrylate crosspolymer, sodium hydroxide and allantoin, was used as the gel base. Gel base and diblock copolymer were weighed, mixed together and heated using a microwave for 4 seconds. A homogenous gel containing diblock copolymer was achieved via levigation of the mixture. Gel base without diblock copolymer was weighed and used for the control formula. Commercial cannabinoid-containing extracts containing known quantities of cannabinoid were weighed and dissolved in a pre-weighed amount of cacao butter over 45 °C heat. The cacao butter cannabinoid mixture was then weighed and incorporated into the gel base, with or without diblock copolymer, via levigation to produce the final gel samples. Cannabinoid content of the final gel samples was analyzed using HPLC. […] Gel samples were stored in air-tight containers at 4 °C until the time of use.
For carboxymethyl cellulose (CMC) gel and Glaxal® base preparation for skin permeation study of cannabidiol (CBD), curcumin, capsaicin and finasteride, CMC gel was made using medium viscosity CMC as a 2% w/v aqueous solution following overnight stirring. […] For CMC preparations containing DBC, DBC was weighed into a glass vial and a small volume of the drug of interest in acetonitrile:methanol (50:50) was added to dissolve all. The solution was then dried for 2 hours in a warm oven (50 °C). In all cases the ratio of DBC:drug was 95:5. A known weight of CMC gel was then added to the warmed vial containing the dried DBC/drug mixture and vortexed to disperse and dissolve all drug. Glaxal® base was used as received. Glaxal® base containing drug was prepared by first weighing drug and dissolving in a known volume of ethanol or methanol. The ethanol or methanol drug solution was then added to a weighed amount of Glaxal® base followed by levigation of the mixture. For CBD, capsaicin, docetaxel and finasteride, it was not possible to prepare CMC gels without the use of DBC, due to drug insolubility. Therefore Glaxal® base preparations containing these drugs were employed as DBC-free comparison groups (control) for skin permeation studies.
For carboxymethyl cellulose (CMC) gel and Glaxal® base preparation for skin permeation study of docetaxel, 2% CMC gel was prepared as described above. Docetaxel (DTX) 6 mg was weighed into 190 μL of acetonitrile and 10 μL of 3H radiolabeled DTX was added. Then 66 μL (i.e., 2 mg of drug) was pipetted into a vial with 40 mg of DBC to dissolve all. The contents were dried down and 1 mL of warm 2% CMC gel was added with vortexing to dissolve all DBC and drug as a micellar solution. For Glaxal® paste 66 μL of the drug solution was dried down to approximately 20 μL and 1 gram of Glaxal® base added to disperse the drug.
Fresh pig skin was obtained from a butcher and defatted to 5 mm thickness and shaved. 2 cm^2 pieces were cut with scissors and placed on Franz diffusion cells filled with PBS and clamped. 100 mg of each formulation was weighed and placed on top of the tissue and capped. The cells were placed in a 37 °C humid incubator for three hours and then dismantled. The tissue was washed three times with PBS and the centre drug-loaded circle of tissue was cut out with scissors and snap frozen. Tissues were sectioned by cryosectioning into 50 μm cuts pooled into groups of five.
A short description of data set [4]: Aqueous solubility with/without diblock copolymer (visual, film rehydration).
Protocol: In these studies the cannabinoid and diblock copolymer are dissolved in ethanol and dried to a film. Warm water is added and solubility is assessed by an optically clear solution or via HPLC or UV/Vis spectrophotometry.
Specific methodologies for aqueous solubility studies were as follows. Drug solutions having a concentration of 10 mg/mL were prepared by weighing drug and dissolving in an appropriate amount of ethanol in glass vials. Control drug samples (no diblock copolymer) were prepared by measuring 1 mL of room temperature distilled water in a glass vial and adding an appropriate volume of 10 mg/mL ethanol drug solution, followed by gentle mixing.
Drug samples with diblock copolymer (60:40 MePEG: PLLA, MW 3333 Da “DBC3333”; 57:43 MePEG:PCL, MW 1320 Da “[COMPOUND LEFT OUT]”; 40:60 MePEG:PCL, MW 1890 Da “PCL10”; 30:70 MePEG:PCL, MW 12000 Da “PCL61”) were prepared by weighing diblock copolymer into glass vials then adding 800 microlitres ethanol followed by an appropriate volume of 10 mg/mL ethanol drug solution. The diblock copolymer was dissolved in the ethanol solution via gentle mixing and the solvent was then evaporated via warm oven heating at approximately 50 °C. Once completely dry, 1 ml distilled water was added to the vials followed by gentle mixing. All vials were capped and left at room temperature for 12 hours, at which time the vials were photographed for evidence of precipitation.
Data set [5] in a line: Limit of aqueous solubility with/without PCL25 (HPLC or UV/VIS). The class given is physicochemical. To be noted: water. As for the experimental part:
Aqueous solubility studies involving diblock copolymer PCL25 (63:37 MePEG:PCL MW 7900 Da) were carried out as follows. 1 mg of drug (either paclitaxel, capsaicin or curcumin) was added to glass vials, designated as either “control” or “diblock copolymer”. Diblock copolymer was omitted from control vials and 100 mg PCL25 was added to diblock copolymer vials. The contents of all vials were then dissolved in 300 microlitres of acetonitrile. The contents were dried at 60 °C for two hours and then 1 mL of warm water (40 °C) was added with vortexing for five minutes. To determine the limit of drug solubility, the contents of each vial were then placed in a microcentrifuge tube and centrifuged at 14000×g for 3 minutes to sediment any undissolved solids. The supernatant was diluted 50% in acetonitrile and the drug was quantitated by HPLC for paclitaxel and capsaicin or by UV/VIS spectrometry (420 nm) for curcumin after 100 fold dilution in acetonitrile for this drug. HPLC conditions were detection at 228 nm for both drugs and a mobile phase of 60:40 (paclitaxel) or 50:50 (capsaicin) acetonitrile:water flowing at 1 mL/min. Calibration standard for all drugs were run in acetonitrile.

Where [6] appears, read: topical, with DBC3333 vs formulation without.
The mark [7] stands for this setting: control, no diblock copolymer, drug 300 μg/mL.
The mark [8] stands for this setting: control, no diblock copolymer, drug 600 μg/mL.
[9] abbreviates: control, no diblock copolymer, drug 1000 μg/mL.
Where [10] appears, read: diblock 0 mg/ml, drug 0.5 mg/ml.
[11] abbreviates: diblock (name withheld) 50 mg/ml, drug 1 mg/ml.
The mark [12] stands for this setting: diblock (name withheld) 50 mg/ml, drug 2 mg/ml.
Setting [13] is: diblock (name withheld) 50 mg/ml, drug 3 mg/ml.
Where [14] appears, read: diblock (name withheld) 50 mg/ml, drug 4 mg/ml.
[15] abbreviates: with DBC3333 50 mg/mL, drug 300 μg/mL.
Where [16] appears, read: with DBC3333 50 mg/mL, drug 600 μg/mL.
Setting [17] is: with DBC3333 50 mg/mL, drug 1000 μg/mL.
[18] abbreviates: with DBC3333 50 mg/mL, drug 2000 μg/mL.
Where [19] appears, read: with DBC3333 50 mg/mL, drug 3000 μg/mL.
Where [20] appears, read: with diblock copolymer PCL25 100 mg/mL.
[21] abbreviates: control, no diblock copolymer, drug 1 μg/mL.
The mark [22] stands for this setting: control, no diblock copolymer, drug 10 μg/mL.
Where [23] appears, read: control, no diblock copolymer, drug 100 μg/mL.
Setting [24] is: control, no diblock copolymer, drug 250 μg/mL.
Where [25] appears, read: control, no diblock copolymer, drug 500 μg/mL.
Where [26] appears, read: with DBC3333 20 mg/mL, drug 250 μg/mL.
Where [27] appears, read: with DBC3333 20 mg/mL, drug 500 μg/mL.
Where [28] appears, read: with DBC3333 20 mg/mL, drug 1000 μg/mL.
Setting [29] is: with DBC3333 20 mg/mL, drug 2000 μg/mL.
The mark [30] stands for this setting: with DBC3333 20 mg/mL, drug 3000 μg/mL.

In brackets after ≈: the same amount, converted by molar mass.

Regarding `CCCCCc1cc(O)c2c(c1)OC(C)(CCC=C(C)C)C=C2` (stereo not drawn) [CBC, cannabichromene], the Water solubility in data set [1] is about 1 µg/mL.
As a reminder, the Solubility is the dissolved amount per volume that the medium holds. In the case of `C=C(C)[C@@H]1CCC(C)=C[C@H]1c1c(O)cc(CCCCC)cc1O` [CBD, cannabidiol], the “Preparation of homogenous CMC gel” value in data set [2] (with DBC3333) is reported as “allowed”; in data set [2] (with diblock copolymer (name withheld)), “allowed”; in data set [2] (without diblock copolymer) it was “not possible to prepare homogenous CMC gel preparations”. The Water solubility in data set [1] was about 1 µg/mL. Besides, the Skin permeation result in data set [3] (CMC gel with diblock copolymer (name withheld) vs identical CBD content in Glaxal base) and in data set [3] (setting [6]) was “enhanced skin permeation” throughout. Besides, the Aqueous solubility result in data set [4] (setting [7]) is reported as “Insol”; in data set [4] (setting [8]) it was “Insol”; in data set [4] (setting [9]), “Insol”; in data set [4] (setting [15]), “Soluble”; in data set [4] (setting [16]), “Soluble”; in data set [4] (setting [17]), “Soluble”. Also, the Aqueous solubility entry in data set [4] (setting [18]) is “Partially”; in data set [4] (setting [19]), “Insol”. The Solubility entry in data set [4] (setting [10]) was “Insol”; in data set [4] (diblock 0 mg/ml, drug 1 mg/ml), “Insol”; in data set [4] (setting [11]) it was “soluble”; in data set [4] (setting [12]), “soluble”; in data set [4] (setting [13]), “Partially”; in data set [4] (setting [14]), “Insol”.
Consider `CCCCCc1cc(O)c(C/C=C(\C)CCC=C(C)C)c(O)c1` [CBG, cannabigerol], for which the Water solubility in data set [1] was about 1 µg/mL. Also, the Aqueous solubility result in data set [4] (setting [7]) is “Insol”; in data set [4] (setting [15]), “Soluble”; in data set [4] (setting [16]), “Soluble”; in data set [4] (setting [17]), “Soluble”; in data set [4] (setting [18]) it was “Partially”; in data set [4] (setting [19]) it was “Insol”.
For the molecule `CCCCCc1cc(O)c2c(c1)OC(C)(C)c1ccc(C)cc1-2` [CBN, cannabinol], the “Preparation of homogenous CMC gel” value in data set [2] (with DBC3333) is listed as “allowed”; in data set [2] (without diblock copolymer), “not possible to prepare homogenous CMC gel preparations”. Moreover, in data set [1], the Water solubility is about 1 µg/mL. For the same molecule, in data set [3] (setting [6]), the Skin permeation entry is given as “enhanced skin permeation”.
`COc1cc(CNC(=O)CCCC/C=C/C(C)C)ccc1O` [Capsaicin, capsaicin]: the Solubility is 10 µg/mL (≈ 32.7 µM) in data set [5] (control, no diblock copolymer) and 506 µg/mL (≈ 1660 µM) in data set [5] (setting [20]). The “Preparation of homogenous CMC gel” value is reported as “allowed” in data set [2] (with PCL25) and “not possible to prepare homogenous CMC gel preparations” in data set [2] (without diblock copolymer). Further, the Skin permeation result in data set [3] (CMC gel with PCL25 vs identical capsaicin content in Glaxal base) is recorded as “enhanced skin permeation”.
As to `CC(=O)O[C@H]1C(=O)[C@@]2(C)[C@H]([C@H](OC(=O)c3ccccc3)[C@]3(O)C[C@H](OC(=O)[C@H](O)[C@@H](NC(=O)c4ccccc4)c4ccccc4)C(C)=C1C3(C)C)[C@]1(OC(C)=O)CO[C@@H]1C[C@@H]2O` [Paclitaxel, paclitaxel], the Solubility in data set [5] (control, no diblock copolymer) was 2 µg/mL (≈ 2.34 µM); in data set [5] (setting [20]) it was 488 µg/mL (≈ 571 µM).
Take `CCCCCc1cc(O)c2c(c1)OC(C)(C)[C@@H]1CCC(C)=C[C@@H]21` [THC, tetrahydrocannabinol]: the Water solubility in data set [1] is about 1 µg/mL. The Skin permeation entry in data set [3] (setting [6]) was “enhanced skin permeation”. Moreover, the Aqueous solubility result in data set [4] (setting [21]), in data set [4] (setting [22]), in data set [4] (setting [23]), in data set [4] (setting [24]), in data set [4] (setting [25]) and in data set [4] (setting [9]) was “Insol” each time. Moreover, the Aqueous solubility result in data set [4] (control, no diblock copolymer, drug 2000 μg/mL) is “Insol”; in data set [4] (setting [26]), “Soluble”; in data set [4] (setting [27]), “Soluble”; in data set [4] (setting [28]), “Partially”; in data set [4] (setting [29]), “Insol”; in data set [4] (setting [30]) it was “Insol”. For the same molecule, the Aqueous solubility entry in data set [4] (with DBC3333 50 mg/mL, drug 500 μg/mL) is given as “Soluble”; in data set [4] (setting [17]), “Soluble”; in data set [4] (setting [18]), “Soluble”; in data set [4] (setting [19]), “Partially”; in data set [4] (with DBC3333 50 mg/mL, drug 4000 μg/mL) it was “Insol”. Moreover, the Solubility entry in data set [4] (setting [10]) was “Insol”; in data set [4] (diblock 0 mg/ml, drug 1 mg/ml) it was “Insol”; in data set [4] (setting [11]), “soluble”; in data set [4] (setting [12]), “soluble”; in data set [4] (setting [13]), “soluble”; in data set [4] (setting [14]), “Soluble”.
For `CCCCCc1cc2c(c(O)c1C(=O)O)[C@@H]1C=C(C)CC[C@H]1C(C)(C)O2` [THCA, tetrahydrocannabinolic acid], the Skin permeation result in data set [3] (setting [6]) was “enhanced skin permeation”. The Aqueous solubility entry in data set [4] (setting [21]) is “Soluble”; in data set [4] (setting [22]) it was “Insol”; in data set [4] (setting [23]) it was “Insol”; in data set [4] (setting [24]) it was “Insol”; in data set [4] (setting [25]), “Insol”; in data set [4] (setting [9]), “Insol”. The Aqueous solubility entry in data set [4] (setting [26]) was “Soluble”; in data set [4] (setting [27]), “Soluble”; in data set [4] (setting [28]) it was “Soluble”; in data set [4] (setting [29]) it was “Partially”; in data set [4] (setting [30]) it was “Insol”. Moreover, the Solubility entry in data set [4] (setting [10]) is reported as “Insol”; in data set [4] (diblock 0 mg/ml, drug 1 mg/ml), “Insol”; in data set [4] (setting [11]), “soluble”; in data set [4] (setting [12]) it was “soluble”; in data set [4] (setting [13]), “soluble”; in data set [4] (setting [14]), “Soluble”.
Consider `CC(=O)O[C@@]12CO[C@@H]1C[C@H](O)[C@@]1(C)C(=O)[C@H](O)C3=C(C)[C@@H](OC(=O)[C@H](O)[C@@H](NC(=O)OC(C)(C)C)c4ccccc4)C[C@@](O)([C@@H](OC(=O)c4ccccc4)[C@H]21)C3(C)C` [docetaxel], for which the “Preparation of homogenous CMC gel” value in data set [2] (with DBC3333) was “allowed”; in data set [2] (without diblock copolymer), “not possible to prepare homogenous CMC gel preparations”. In data set [3] (setting [6]), the Skin permeation entry is on record as “enhanced skin permeation”.
As to `CC(C)(C)NC(=O)[C@H]1CC[C@H]2[C@@H]3CC[C@H]4NC(=O)C=C[C@]4(C)[C@H]3CC[C@]12C` [finasteride], the “Preparation of homogenous CMC gel” value in data set [2] (with DBC3333) is on record as “allowed”; in data set [2] (without diblock copolymer), “not possible to prepare homogenous CMC gel preparations”. Further, the Skin permeation entry in data set [3] (setting [6]) is reported as “enhanced skin permeation”. Also, the Aqueous solubility result in data set [4] (setting [7]) is on record as “Insol”; in data set [4] (setting [8]), “Insol”; in data set [4] (setting [9]), “Insol”; in data set [4] (setting [15]), “Soluble”; in data set [4] (setting [16]) it was “Partially”; in data set [4] (setting [17]) it was “Insol”. Besides, the Aqueous solubility entry in data set [4] (setting [18]) and in data set [4] (setting [19]) was “Insol” each time.
